Common to all, as to format: in vivo
For assay [1], the system named is southern root-knot nematode (Meloidogyne incognita). Put plainly: Test Example 1: immersion of second stage juveniles in chemical solution, mobility inhibition. The note with it: compound alone, 24 hours, 25° C. On the procedure: About 50 larvae at second stage juveniles of southern root-knot nematode (Meloidogyne incognita) were immersed in a chemical solution diluted to a predetermined concentration with distilled water and kept for 24 hours in a constant temperature room at 25° C. […] From these values, the mobility inhibition rate was determined by the following formula.
Mobility inhibition rate (%)=[1-{(1-B/A)/(1-B′/A′)}]×100
Further, a theoretical value (%) of the mobility inhibition rate was calculated by the Colby's formula and is also shown in brackets ( ) in Table 1. The measured value (%) of the mobility inhibition rate is higher than the theoretical value (%), and thus, the composition of the present invention has a synergistic effect for controlling nematode.

The test system is the same in assay [2]. Put plainly: Example 3: cup test, contaminated soil mixed with test agents, cucumber seeds, control value from root knot index. The note with it: compound alone, 26th day after seeding, =100−the root knot index. On the procedure: Soil contaminated with southern root-knot nematode (Meloidogyne incognita) was put in a 200 ml polypropylene cup, and predetermined amounts of test agents were added and mixed. Immediately after the addition of the test agents, the mixture was thoroughly mixed and then seeded with three seeds of cucumber. On the 26th day after seeding, the root knot index (0 to 100%) formed by nematode was visually determined.
As the test results, from the root knot index based on the root knot index in the non-treated area being 100, the control value (=100−the root knot index) was calculated, and the results are shown in Tables 3 and 4. Further, a theoretical value obtained by the Colby's formula (=Control value of compound A+Control value of compound B−((Control value of compound A×Control value of compound B)/100)) is also shown in brackets ( ) in Tables 3 and 4.

The test system is the same in assay [3]. Put plainly: Example 2: pot test, contaminated soil mixed with test agents, tomato seedlings, root knot index. The note with it: compound alone, 35th day after transplantation, non-treated area being 100. The protocol: 1 Liter of sand soil obtained by mixing paddy steam sterilization soil, sand soil and soil contaminated with southern root-knot nematode (Meloidogyne incognita) in a volume ratio of 2:2:1, was put into a 1/1,000,000 ha pot, and predetermined amounts of test agents were added and mixed, Immediately after addition of the test agents, the mixture was sufficiently mixed, and then, seedlings of tomato (cultivar: kyoryoku bei ju) were transplanted. On the 35th day after transplantation, the root knot index (0 to 100%) formed by nematode was visually determined. The test was carried out by two replications.
Further, a theoretical value determined by the Colby's formula is shown in brackets ( ) in Table 2.

By inhibition is commonly meant how much of the control response was suppressed.

For the compound `O=S(=O)(CCC(F)=C(F)F)c1ncc(Cl)s1` [Fluensulfone, fluensulfone], the “Mobility inhibition rate (%)” value in assay [1] (0.31 ppm) came to 36.4%; in assay [1] (0.63 ppm), 41.7%; in assay [1] (1.25 ppm) it was 48.1%; in assay [1] (2.5 ppm) it was 54.7%; in assay [1] (5 ppm), 69.1%. Further, the Control value in assay [2] (200 g/ha) is recorded as 73.3. Moreover, the “Average root knot index” value in assay [3] (2500 g/ha) is recorded as 25.7.
As for `CCOP(=O)(SC(C)CC)N1CCSC1=O` (stereo not drawn) [Fosthiazate, fosthiazate], the inhibition at 0.31 ppm in assay [1] (Meloidogyne incognita, 0.31 ppm, read-out: Mobility inhibition rate (%)) stood at 0.2%. For the same compound, in assay [1] (Meloidogyne incognita, 0.63 ppm, read-out: Mobility inhibition rate (%)), the inhibition at 0.63 ppm is 15%. Further, the inhibition at 1.25 ppm in assay [1] (Meloidogyne incognita, 1.25 ppm, read-out: Mobility inhibition rate (%)) is 22.7%. Also, the inhibition at 2.5 ppm in assay [1] (Meloidogyne incognita, 2.5 ppm, read-out: Mobility inhibition rate (%)) turned out to be 55.7%. The inhibition at 5 ppm in assay [1] (Meloidogyne incognita, 5 ppm, read-out: Mobility inhibition rate (%)) amounted to 96.2%. The Control value is on record as 70.0 in assay [2] (125 g/ha); 73.3 in assay [2] (188 g/ha); 83.3 in assay [2] (250 g/ha); 90.0 in assay [2] (375 g/ha); 90.0 in assay [2] (500 g/ha). Further, in assay [3] (3000 g/ha), the “Average root knot index” value was found to be 11.4.

The values are drawn from patent publication US20170354152A1, “PESTICIDAL COMPOSITION AND METHOD FOR CONTROLLING PESTS” (priority 2015, published 2017).
